SMILES strings stand for the structures. ≈ marks a conversion by molar mass, not a printed value.

Data set [1] is described as follows: Solubility in PBS and H2O, dry powder, 24 hour timepoint.
The nature of data set [2]: Plasma protein binding by rapid-equilibrium dialysis, mouse. To be noted: 37 °C for 5 h. (In general: Equilibrium dialysis compares concentrations on both sides of a semipermeable membrane.)
Data set [3] in a line: Microsomal stability, mouse. Conditions: % parent remaining at 1 hour.
The nature of data set [4]: Plasma protein binding by rapid-equilibrium dialysis, human. To be noted: 37 °C for 5 h.
A short description of data set [5]: Hepatocyte stability, human. Conditions: % parent remaining at 2 hour.
The next data set can be described thus: Plasma stability, mouse. Conditions: % parent remaining at 5 h.
Data set [6] in a line: Microsomal stability, human. To be noted: % parent remaining at 1 hour.
The subject of the next data set is Caco-2 monolayer. The experiment in a line: Bidirectional Caco-2 permeability. Format: in vitro ADME. Conditions: for Caco-2 A-B: A-B direction; for Caco-2 B-A: B-A direction. In general terms: Caco-2 monolayers are a common model of the intestinal barrier.
Data set [7] can be described thus: BBB parallel artificial membrane permeability assay. Format: in vitro ADME. To be noted: for BBB PAMPA: Pe; for Papp: PAMPA. In general terms: The PAMPA barrier holds no transporters, so it reflects passive diffusion.
The next data set in a line: Plasma stability, human. To be noted: % parent remaining at 5 h.
A short description of data set [8]: Hepatocyte stability, mouse. Conditions: % parent remaining at 2 hour.
A short description of another data set: physchem. Conditions: thermodynamic from solid.
Data set [9] in a line: Bidirectional Caco-2 permeability. Format: in vitro ADME. To be noted: human, Caco-2.

On to `CCCN1C2CN(C(C)=O)CC1C2c1ccccc1` (centres unmarked) [27b], for which, in [1], the “solubility H2O” value came to 483 µM (≈ 125 µg/mL) and the “solubility PBS” value came out at 476 µM (≈ 123 µg/mL). In [2], this compound registered a protein binding mouse of 13 % bound. In data set [3], the microsomal stability mouse is recorded as 93 % remaining. In [4], this compound returned a protein binding human of 23 % bound. Also, the hepatocytes human in data set [5] is recorded as 104 % remaining. The plasma stability mouse in the data set “Plasma stability, mouse” came to 94 % remaining. Besides, the microsomal stability human in data set [6] was found to be 93 % remaining. Besides, in the data set on Caco-2 monolayer, the “Caco-2 A-B” value is 54 10^−6 cm.s^−1 and the “Caco-2 B-A” value is listed as 56 10^−6 cm.s^−1. Moreover, the “BBB PAMPA” value in [7] is recorded as 15 10^−6 cm s^−1. In addition, the plasma stability human in the data set “Plasma stability, human” was determined as 83 % remaining. In addition, in data set [8], the hepatocytes mouse is reported as 94 % remaining.

The term solubility denotes the dissolved amount per volume that the medium holds. A high value points to a readily soluble substance. The Papp A→B is how fast a substance crosses the layer from the apical side. High values mean ready permeation, low ones poor permeation. Usually Papp B→A stands for the apparent permeability from the basolateral to the apical side of a cell layer. A word on the Papp: it is a coefficient for how fast a substance crosses the barrier. The low end stands for poor permeation, the high end for ready permeation. Compound `CCCN1C2CN(S(C)(=O)=O)CC1C2c1ccccc1` (centres unmarked) [27c, 3-(Methylsulfonyl)-7-phenyl-6-propyl-3,6-diazabicyclo[3.1.1]heptane] came in with a protein binding mouse in data set [2] of 39 % bound. In addition, in data set [3], the microsomal stability mouse amounted to 72 % remaining. In [4], this compound showed a protein binding human of 31 % bound. The compound also yielded a solubility at 24 h in the data set “physchem” (PBS, aqueous buffer) of 470 µM (≈ 138 µg/mL). The compound also had a solubility at 24 h in “physchem” (water) of 490 µM (≈ 144 µg/mL). The hepatocytes human in data set [5] is listed as 72 % remaining. For the same compound, in “Plasma stability, mouse”, the plasma stability mouse stood at 102 % remaining. For the same compound, the microsomal stability human in [6] came out at 86 % remaining. In addition, in data set [9], the Papp A→B was 66 ×10⁻⁶ cm/s and the Papp B→A was determined as 54 ×10⁻⁶ cm/s. Besides, in data set [7], the Papp stood at 31 ×10⁻⁶ cm/s. Further, in “Plasma stability, human”, the plasma stability human is on record as 113 % remaining. Moreover, in data set [8], the hepatocytes mouse stood at 67 % remaining.

Take `CCCN1[C@H](CO)[C@H](c2ccccc2)[C@@H]1CN` [26b, ((2S,3R,4R)-4-(Aminomethyl)-3-phenyl-1-propylazetidin-2-yl)methanol]: in data set [1], the “solubility H2O” value is given as more than 500 µM and the “solubility PBS” value was more than 500 µM. The compound further had a protein binding mouse in data set [2] of 19 % bound. Also, the microsomal stability mouse in data set [3] came to 68 % remaining. This compound registered a protein binding human in data set [4] of 7 % bound. In addition, the hepatocytes human in data set [5] is 103 % remaining. The plasma stability mouse in “Plasma stability, mouse” worked out at 100 % remaining. Further, the microsomal stability human in data set [6] came to 73 % remaining. Also, in the data set on Caco-2 monolayer, the “Caco-2 A-B” value is 16 10^−6 cm.s^−1 and the “Caco-2 B-A” value is 8 10^−6 cm.s^−1. For the same compound, in data set [7], the “BBB PAMPA” value is given as 83 10^−6 cm s^−1. Besides, in “Plasma stability, human”, the plasma stability human came to 92 % remaining. Further, the hepatocytes mouse in data set [8] came to 103 % remaining.

`CCCN1[C@H](CO)[C@H](c2ccccc2)[C@@H]1C#N` [26a, (2R,3R,4S)-4-(Carbonitrile)-3-phenyl-1-propylazetidine-2-hydroxymethyl]: in data set [1], the “solubility H2O” value is more than 500 µM and the “solubility PBS” value worked out at 402 µM (≈ 92.6 µg/mL). In data set [2], this compound showed a protein binding mouse of 65 % bound. For the same compound, in [3], the microsomal stability mouse was 62 % remaining. The same compound displayed a protein binding human in data set [4] of 65 % bound. In data set [5], the hepatocytes human was 54 % remaining. The plasma stability mouse in the data set “Plasma stability, mouse” is listed as 110 % remaining. The microsomal stability human in [6] worked out at 88 % remaining. Further, in the data set on Caco-2 monolayer, the “Caco-2 A-B” value is listed as 67 10^−6 cm.s^−1 and the “Caco-2 B-A” value is on record as 49 10^−6 cm.s^−1. Also, the plasma stability human in the data set “Plasma stability, human” came to 109 % remaining. In addition, the hepatocytes mouse in [8] is listed as 59 % remaining.

In data set [2], `OC[C@@H]1[C@H](c2ccc(Br)cc2)[C@@H]2CNCCCCN12` [29a, ((8R,9R,10S)-9-(4-Bromophenyl)-1,6-diazabicyclo[6.2.0]decan-10-yl) methanol] registered a protein binding mouse of 46 % bound. Besides, the microsomal stability mouse in data set [3] is given as 98 % remaining. The protein binding human in [4] is reported as 24 % bound. For the same compound, the solubility at 24 h was determined as 485 µM (≈ 158 µg/mL) in “physchem” (PBS, aqueous buffer) and 388 µM (≈ 126 µg/mL) in “physchem” (water). Further, the hepatocytes human in data set [5] is 104 % remaining. Moreover, the plasma stability mouse in the data set “Plasma stability, mouse” is listed as 94 % remaining. For the same compound, the microsomal stability human in [6] came to 96 % remaining. This compound yielded a Papp A→B in data set [9] of 14 ×10⁻⁶ cm/s. The Papp B→A in data set [9] worked out at 32 ×10⁻⁶ cm/s. Moreover, the Papp in [7] came to 14 ×10⁻⁶ cm/s. Also, in the data set “Plasma stability, human”, the plasma stability human is 97 % remaining. Further, the hepatocytes mouse in data set [8] was determined as 99 % remaining.

Take `CCCN1C(CO)C2c3ccccc3N(C(C)=O)CC21` (racemic) [31b, 1-((±)-1-(Hydroxymethyl)-2-propyl-1,2a,3,8b-tetrahydroazeto[2,3-c]quinolin-4 (2H)-yl) ethanone]: in data set [1], the “solubility H2O” value came out at 496 µM (≈ 136 µg/mL) and the “solubility PBS” value is reported as 489 µM (≈ 134 µg/mL). This compound also displayed a protein binding mouse in data set [2] of 20 % bound. Besides, the microsomal stability mouse in [3] is listed as 64 % remaining. Besides, in [4], the protein binding human turned out to be 18 % bound. For the same compound, the hepatocytes human in [5] turned out to be 32 % remaining. Further, in the data set “Plasma stability, mouse”, the plasma stability mouse was determined as 98 % remaining. Moreover, in [6], the microsomal stability human was found to be 88 % remaining. Further, in the data set with Caco-2 monolayer, the “Caco-2 A-B” value is recorded as 48 10^−6 cm.s^−1 and the “Caco-2 B-A” value is on record as 51 10^−6 cm.s^−1. For the same compound, the “BBB PAMPA” value in data set [7] was 14 10^−6 cm s^−1. For the same compound, in “Plasma stability, human”, the plasma stability human came to 106 % remaining. The hepatocytes mouse in data set [8] worked out at 71 % remaining.

The values are drawn from PMC3454511 (The Journal of organic chemistry, 2012).
